From the supplement of paper PMC10627819

Tests used:
[1] = tested on: S. aureus DSM 20231; assay: fitness (endpoint OD595 vs no drug) (fraction); higher = more growth
How it was run: (§1)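 Fitness compares growth at the stationary-phase transition with the robust mean of no-drug control wells, as a ratio of optical densities. The ratio is capped at 1. Wells of 384-well plates held 30 µl, or 55 µl for S. pneumoniae, inoculated at OD595 0.01. Readings at OD595 every 30 min for 14 h at 37 °C were corrected against the first reading.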

[2] = tested on: S. aureus Newman; assay: as above
How it was run: as §1

[3] = tested on: S. pneumoniae D39V; assay: as above
How it was run: as §1

[4] = tested on: B. subtilis 168; assay: Bliss interaction score (quartile over a dose matrix) (fitness difference); higher = more antagonism (negative = synergy)
How it was run: (§2)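 Quartiles of the Bliss score were taken over technical, biological and donor/recipient replicates. That score is observed fitness minus the product of the single-drug fitness values, which were inferred from combination data. Fitness itself is OD595 at entry into stationary phase divided by the plate's robust no-drug mean, with a cap at 1.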

[5] = tested on: S. aureus DSM 20231; assay: as above
How it was run: as §2

[6] = tested on: S. aureus Newman; assay: as above
How it was run: as §2

[7] = tested on: S. pneumoniae D39V; assay: as above
How it was run: as §2
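Throughout, for Bliss interaction score (quartile over a dose matrix): first quartile when negative (synergy) and third quartile when positive (antagonism).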

COc1c(N2C[C@@H]3CCCN[C@@H]3C2)c(F)cc2c(=O)c(C(=O)O)cn(C3CC3)c12 [Moxifloxacin] + CN[C@H](CC(C)C)C(=O)N[C@H]1C(=O)N[C@@H](CC(N)=O)C(=O)N[C@H]2C(=O)N[C@H]3C(=O)N[C@H](C(=O)N[C@H](C(=O)O)c4cc(O)cc(O)c4-c4cc3ccc4O)[C@H](O)c3ccc(c(Cl)c3)Oc3cc2cc(c3O[C@@H]2O[C@H](CO)[C@@H](O)[C@H](O)[C@H]2O[C@H]2C[C@](C)(N)[C@H](O)[C@H](C)O2)Oc2ccc(cc2Cl)[C@H]1O [Vancomycin]
Details | fitness
[1], first compound 0.0075 µg/mL, partner 0.1875 µg/mL | 0.818
[1], first compound 0.0075 µg/mL, partner 0.375 µg/mL | 0.854
[1], first compound 0.0075 µg/mL, partner 0.75 µg/mL | 0.853
[1], first compound 0.015 µg/mL, partner 0.1875 µg/mL | 0.745
[1], first compound 0.015 µg/mL, partner 0.375 µg/mL | 0.761
[1], first compound 0.015 µg/mL, partner 0.75 µg/mL | 0.84
[1], first compound 0.03 µg/mL, partner 0.1875 µg/mL | 0.667
[1], first compound 0.03 µg/mL, partner 0.375 µg/mL | 0.689
[1], first compound 0.03 µg/mL, partner 0.75 µg/mL | 0.652
[2], first compound 0.0075 µg/mL, partner 0.1875 µg/mL | 0.768
[2], first compound 0.0075 µg/mL, partner 0.375 µg/mL | 0.75
[2], first compound 0.0075 µg/mL, partner 0.75 µg/mL | 0.768
[2], first compound 0.015 µg/mL, partner 0.75 µg/mL | 0.518
[2], first compound 0.03 µg/mL, partner 0.375 µg/mL | 0.0717
[2], first compound 0.03 µg/mL, partner 0.75 µg/mL | 0.0889
[3], first compound 0.0037 µg/mL, partner 0.03125 µg/mL | 0.881
[3], first compound 0.005 µg/mL, partner 0.125 µg/mL | 0.909
[3], first compound 0.0075 µg/mL, partner 0.03125 µg/mL | 0.908
[3], first compound 0.0075 µg/mL, partner 0.0625 µg/mL | 0.853
[3], first compound 0.0075 µg/mL, partner 0.125 µg/mL | 0.753
[3], first compound 0.01 µg/mL, partner 0.125 µg/mL | 0.92
[3], first compound 0.015 µg/mL, partner 0.03125 µg/mL | 0.897
[3], first compound 0.015 µg/mL, partner 0.0625 µg/mL | 0.848
[3], first compound 0.015 µg/mL, partner 0.125 µg/mL | 0.689
[3], first compound 0.02 µg/mL, partner 0.125 µg/mL | 0.913

fitness, [1], one replicate
Details | partner 0.1875 µg/mL | partner 0.375 µg/mL | partner 0.75 µg/mL
first compound 0.06 µg/mL | 0.688 | 0.694 | 0.704
first compound 0.12 µg/mL | 0.46 | 0.455 | 0.46

Details | Bliss interaction score
[4] | 0.031
[5] | -0.0583
[6] | -0.0617
[7] | 0.0942

COc1c(N2C[C@@H]3CCCN[C@@H]3C2)c(F)cc2c(=O)c(C(=O)O)cn(C3CC3)c12 [Moxifloxacin] + Cn1nnc(-c2ccc(-c3ccc(N4C[C@H](CO)OC4=O)cc3F)cn2)n1 [Tedizolid]
fitness
Details | partner 0.03125 µg/mL | partner 0.0625 µg/mL | partner 0.125 µg/mL | partner 0.25 µg/mL | partner 0.5 µg/mL
[1], first compound 0.0075 µg/mL | – | 0.813 | 0.765 | 0.411 | –
[1], first compound 0.015 µg/mL | – | 0.755 | 0.704 | 0.453 | –
[1], first compound 0.03 µg/mL | – | 0.682 | 0.7 | 0.653 | –
[2], first compound 0.0075 µg/mL | – | 0.755 | 0.737 | 0.41 | –
[2], first compound 0.015 µg/mL | – | 0.587 | 0.581 | 0.291 | –
[2], first compound 0.03 µg/mL | – | – | 0.343 | 0.178 | –
[3], first compound 0.0037 µg/mL | 0.887 | 0.877 | 0.741 | – | –
[3], first compound 0.005 µg/mL | – | – | 0.851 | 0.8 | 0.441
[3], first compound 0.0075 µg/mL | 0.904 | 0.871 | 0.761 | – | –
[3], first compound 0.01 µg/mL | – | – | 0.857 | 0.775 | 0.466
[3], first compound 0.015 µg/mL | 0.897 | 0.822 | 0.761 | – | –
[3], first compound 0.02 µg/mL | – | – | 0.842 | 0.778 | 0.49

fitness, [1], one replicate
Details | partner 0.0625 µg/mL | partner 0.125 µg/mL | partner 0.25 µg/mL
first compound 0.06 µg/mL | 0.67 | 0.69 | 0.727
first compound 0.12 µg/mL | 0.511 | 0.539 | 0.595

Details | Bliss interaction score
[4] | -0.0253
[5] | 0.103
[6] | 0.0881
[7] | -0.0629

CN[C@H](CC(C)C)C(=O)N[C@H]1C(=O)N[C@@H](CC(N)=O)C(=O)N[C@H]2C(=O)N[C@H]3C(=O)N[C@H](C(=O)N[C@H](C(=O)O)c4cc(O)cc(O)c4-c4cc3ccc4O)[C@H](O)c3ccc(c(Cl)c3)Oc3cc2cc(c3O[C@@H]2O[C@H](CO)[C@@H](O)[C@H](O)[C@H]2O[C@H]2C[C@](C)(N)[C@H](O)[C@H](C)O2)Oc2ccc(cc2Cl)[C@H]1O [Vancomycin] + CC1=C\[C@@H](O)CC(=O)Cc2nc(co2)C(=O)N2CCC=C2C(=O)O[C@H](C(C)C)[C@H](C)/C=C/C(=O)NC\C=C\1 [Virginiamycin M1]
Details | fitness
[1], first compound 0.1875 µg/mL, partner 0.0625 µg/mL | ≥ 1
[1], first compound 0.1875 µg/mL, partner 0.125 µg/mL | ≥ 1
[1], first compound 0.1875 µg/mL, partner 0.25 µg/mL | 0.998
[1], first compound 0.375 µg/mL, partner 0.0625 µg/mL | ≥ 1
[1], first compound 0.375 µg/mL, partner 0.125 µg/mL | ≥ 1
[1], first compound 0.375 µg/mL, partner 0.25 µg/mL | ≥ 1
[1], first compound 0.75 µg/mL, partner 0.0625 µg/mL | ≥ 1
[1], first compound 0.75 µg/mL, partner 0.125 µg/mL | ≥ 1
[1], first compound 0.75 µg/mL, partner 0.25 µg/mL | ≥ 1
[2], first compound 0.1875 µg/mL, partner 0.0625 µg/mL | 0.991
[2], first compound 0.1875 µg/mL, partner 0.125 µg/mL | 0.994
[2], first compound 0.1875 µg/mL, partner 0.25 µg/mL | 0.99
[2], first compound 0.375 µg/mL, partner 0.0625 µg/mL | ≥ 1
[2], first compound 0.375 µg/mL, partner 0.125 µg/mL | 0.988
[2], first compound 0.375 µg/mL, partner 0.25 µg/mL | 0.977
[2], first compound 0.75 µg/mL, partner 0.0625 µg/mL | ≥ 1
[2], first compound 0.75 µg/mL, partner 0.125 µg/mL | 0.995
[2], first compound 0.75 µg/mL, partner 0.25 µg/mL | 0.962
[3], first compound 0.03125 µg/mL, partner 0.5 µg/mL | ≥ 1
[3], first compound 0.03125 µg/mL, partner 1 µg/mL | ≥ 1
[3], first compound 0.03125 µg/mL, partner 2 µg/mL | 0.982
[3], first compound 0.0625 µg/mL, partner 0.5 µg/mL | 0.982
[3], first compound 0.0625 µg/mL, partner 1 µg/mL | 0.97
[3], first compound 0.0625 µg/mL, partner 2 µg/mL | 0.971
[3], first compound 0.125 µg/mL, partner 0.5 µg/mL | 0.988
[3], first compound 0.125 µg/mL, partner 1 µg/mL | 0.939
[3], first compound 0.125 µg/mL, partner 2 µg/mL | 0.945
[3], first compound 0.25 µg/mL, partner 2 µg/mL | 0.881

fitness, one replicate
Details | partner 0.15 µg/mL | partner 0.3 µg/mL | partner 0.5 µg/mL | partner 1 µg/mL | partner 2 µg/mL
[1], first compound 0.1875 µg/mL | – | – | 0.766 | 0.687 | –
[1], first compound 0.375 µg/mL | – | – | 0.727 | 0.733 | –
[1], first compound 0.75 µg/mL | – | – | 0.795 | 0.791 | –
[2], first compound 0.1875 µg/mL | – | – | 0.913 | 0.98 | 0.883
[2], first compound 0.375 µg/mL | – | – | 0.887 | 0.97 | 0.861
[2], first compound 0.75 µg/mL | – | – | 0.815 | 0.93 | 0.903
[3], first compound 0.125 µg/mL | ≥ 1 | ≥ 1 | – | – | –
[3], first compound 0.25 µg/mL | 0.946 | 0.993 | 0.873 | 0.681 | –
[3], first compound 0.5 µg/mL | 0.355 | 0.71 | 0.366 | 0.0772 | –

Details | Bliss interaction score
[4] | -0.0585
[5] | 0.0837
[6] | 0.0634
[7] | 0.128
